The text below walks through data of patent publication US12503471B2, “Triazatricycle compounds for the treatment of autoimmune disease” (Hoffmann-La Roche Inc., priority 2019, dated 2025).

SMILES strings stand for the structures.

The target of one data set is T1, human TLR9 (Homo sapiens, UniProt Q9NR96).
T1 construct: host or cells: HEK293 (HEK-Blue hTLR9)
T1 sequence (Q9NR96 26-1032): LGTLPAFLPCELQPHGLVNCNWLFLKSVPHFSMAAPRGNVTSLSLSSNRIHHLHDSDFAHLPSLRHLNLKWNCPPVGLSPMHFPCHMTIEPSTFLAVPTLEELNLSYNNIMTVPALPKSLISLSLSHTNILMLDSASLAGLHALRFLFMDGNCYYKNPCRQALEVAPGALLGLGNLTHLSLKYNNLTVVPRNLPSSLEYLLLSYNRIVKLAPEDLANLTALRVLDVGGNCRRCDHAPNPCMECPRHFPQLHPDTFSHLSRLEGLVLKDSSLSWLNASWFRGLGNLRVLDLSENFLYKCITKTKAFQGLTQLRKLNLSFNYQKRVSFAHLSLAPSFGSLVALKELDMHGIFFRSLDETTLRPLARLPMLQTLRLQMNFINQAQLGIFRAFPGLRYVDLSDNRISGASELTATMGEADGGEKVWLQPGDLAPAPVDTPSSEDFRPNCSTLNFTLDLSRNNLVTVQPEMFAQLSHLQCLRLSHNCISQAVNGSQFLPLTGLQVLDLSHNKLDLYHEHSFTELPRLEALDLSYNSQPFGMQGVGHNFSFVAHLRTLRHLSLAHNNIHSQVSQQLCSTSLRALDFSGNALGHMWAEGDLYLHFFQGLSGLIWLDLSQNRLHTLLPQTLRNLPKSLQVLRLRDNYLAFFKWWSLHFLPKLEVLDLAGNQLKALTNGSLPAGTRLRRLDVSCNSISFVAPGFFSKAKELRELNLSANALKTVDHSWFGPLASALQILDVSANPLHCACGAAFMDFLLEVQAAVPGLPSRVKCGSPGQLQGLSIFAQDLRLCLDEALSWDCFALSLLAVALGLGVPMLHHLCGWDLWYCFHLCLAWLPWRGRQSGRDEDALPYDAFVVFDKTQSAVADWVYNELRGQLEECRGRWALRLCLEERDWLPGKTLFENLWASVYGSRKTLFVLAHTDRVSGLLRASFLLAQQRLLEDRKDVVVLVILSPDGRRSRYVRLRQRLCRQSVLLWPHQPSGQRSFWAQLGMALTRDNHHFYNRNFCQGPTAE
Description: HEK293-Blue-hTLR-9 cells assay. Type of data set: cell-based. The note with it: HEK293-Blue-hTLR9 cells, ODN2006 stimulation, 20 hrs, SEAP reporter; read-out: HEK/hTLR9 IC50. The source says: HEK293-Blue-hTLR-9 Cells Assay:
A stable HEK293-Blue-hTLR-9 cell line was purchased from InvivoGen (Cat. #: hkb-htlr9, San Diego, Calif., USA). These cells were originally designed for studying the stimulation of human TLR9 by monitoring the activation of NF-κB. A SEAP (secreted embryonic alkaline phosphatase) reporter gene was placed under the control of the IFN-β minimal promoter fused to five NF-κB and AP-1-binding sites. The SEAP was induced by activating NF-κB and AP-1 via stimulating HEK-Blue hTLR9 cells with TLR9 ligands. Therefore the reporter expression was declined by TLR9 antagonist under the stimulation of a ligand, such as ODN2006 (Cat. #: tlrl-2006-1, Invivogen, San Diego, Calif., USA), for incubation of 20 hrs. The cell culture supernatant SEAP reporter activity was determined using QUANTI-Blue^TM kit (Cat. #: rep-qbl, Invivogen, San Diego, Calif., USA) at a wavelength of 640 nm, a detection medium that turns purple or blue in the presence of alkaline phosphatase.
HEK293-Blue-hTLR9 cells were incubated at a density of 250,000˜450,000 cells/mL in a volume of 170 μL in a 96-well plate in Dulbecco's Modified Eagle's medium (DMEM) containing 4.5 g/L glucose, 50 U/mL penicillin, […] streptomycin, […] Normocin, 2 mM L-glutamine, 10% (v/v) heat-inactivated fetal bovine serum with addition of 20 μL test compound in a serial dilution in the presence of final DMSO at 1% and 10 μL of 20 uM ODN2006 in above DMEM, perform incubation under 37° C. in a CO2 incubator for 20 hrs. Then 20 μL of the supernatant from each well was incubated with 180 μL Quanti-blue substrate solution at 37° C. for 2 h and the absorbance was read at 620-655 nm using a spectrophotometer. The signaling pathway that TLR9 activation leads to downstream NF-κB activation has been widely accepted, and therefore similar reporter assay was modified for evaluating TLR9 antagonist.

Data set [1] is described as follows: Human microsomal stability assay. Type of data set: in vitro ADME. The note with it: human liver microsomes, 1 μM test compound, 0.5 mg/mL protein, 37° C., pH 7.4. The procedure: Human Microsomal Stability Assay
Human liver microsomes (Cat.NO.: 452117, Corning, USA) were preincubated with test compound for 10 minutes at 37° C. in 100 mM potassium phosphate buffer, pH 7.4. The reactions were initiated by adding NADPH regenerating system. The final incubation mixtures contained 1 μM test compound, 0.5 mg/mL liver microsomal protein, 1 mM MgCl2, 1 mM NADP, 1 unit/mL isocitric dehydrogenase and 6 mM isocitric acid in 100 mM potassium phosphate buffer, pH 7.4. After incubation times of 0, 3, 6, 9, 15 and 30 minutes at 37° C., 300 μL of cold ACN (including internal standard) was added to 100 μL incubation mixture to terminate the reaction. Following precipitation and centrifugation, 100 uL supernatant will be taken out and added 300 uL water. The amount of compound remaining in the samples was determined by LC-MS/MS. Controls of no NADPH regenerating system at zero and 30 minutes were also prepared and analyzed. The results were categorized as: low (7.0 mL/min/kg), medium (7.0-16.2 mL/min/kg) and high (16.2-23.2 mL/min/kg).
(In general: Liver microsomes are vesicles of endoplasmic reticulum, rich in cytochrome P450 enzymes.)

For the compound `[2H]c1ccc2c(N3C[C@@H](C)N4Cc5nc(N6CCC7(CC6)CNCCO7)ccc5[C@H]4C3)ccc(C#N)c2n1` [Example 18, 2-Deuterio-5-[(2S,6R)-6-methyl-11-(1-oxa-4,9-diazaspiro[5.5]undecan-9-yl)-4,7,10-triazatricyclo[7.4.0.02,7]trideca-1(9),10,12-trien-4-yl]quinoline-8-carbonitrile], the IC50 on human TLR9 was found to be 262 nM. Still for that read-out and setting: the value for `[2H]c1ccc2c(N3C[C@@H](C)N4Cc5nc(N6CC[C@@H](OC)[C@H](N)C6)ccc5[C@H]4C3)ccc(C#N)c2n1` [Example 15, 5-[(2S,6R)-11-[(3R,4R)-3-amino-4-methoxy-1-piperidyl]-6-methyl-4,7,10-triazatricyclo[7.4.0.02,7]trideca-1(9),10,12-trien-4-yl]-2-deuterio-quinoline-8-carbonitrile] was 212 nM. Consider `[2H]c1ccc2c(N3C[C@@H](C)N4Cc5nc(N6CC[C@](C)(N)C6)ccc5[C@H]4C3)ccc(C#N)c2n1` [Example 8, 5-[(2S,6R)-11-[(3S)-3-amino-3-methyl-pyrrolidin-1-yl]-6-methyl-4,7,10-triazatricyclo[7.4.0.02,7]trideca-1(9),10,12-trien-4-yl]-2-deuterio-quinoline-8-carbonitrile], for which, at human TLR9, the IC50 was found to be 139 nM. In addition, in data set [1], the “CL (h)” value turned out to be 6.2 mL/min/kg. The like results for `[2H]c1ccc2c(N3C[C@@H](C)N4Cc5nc(N6CCC7(CNC7)C6)ccc5[C@H]4C3)ccc(C#N)c2n1` [Example 9, 2-Deuterio-5-[(2S,6R)-11-(2,6-diazaspiro[3.4]octan-6-yl)-6-methyl-4,7,10-triazatricyclo[7.4.0.02,7]trideca-1(9),10,12-trien-4-yl]quinoline-8-carbonitrile] were, in that order, 106 nM and 6.2 mL/min/kg. The like results for `[2H]c1ccc2c(N3C[C@@H](C)N4Cc5nc(N6CC[C@H](N)[C@H](OC)C6)ccc5[C@H]4C3)ccc(C#N)c2n1` [Example 13, 5-[(2S,6R)-11-[(3R,4S)-4-amino-3-methoxy-1-piperidyl]-6-methyl-4,7,10-triazatricyclo[7.4.0.02,7]trideca-1(9),10,12-trien-4-yl]-2-deuterio-quinoline-8-carbonitrile] were, in that order, 289 nM and 9.4 mL/min/kg. The like results for `C[C@@H]1CN(c2ccc(C#N)c3ncccc23)C[C@@H]2c3ccc(N4CCNCC4)nc3CN12` [Example 5, 5-[(2S,6R)-6-methyl-11-piperazin-1-yl-4,7,10-triazatricyclo[7.4.0.02,7]trideca-1(9),10,12-trien-4-yl]quinoline-8-carbonitrile] were, in that order, 252 nM and 8.1 mL/min/kg. Consider `[2H]c1ccc2c(N3C[C@@H](C)N4Cc5nc(N6C[C@@H]7C[C@H]6CN7)ccc5[C@H]4C3)ccc(C#N)c2n1` [Example 16, 2-Deuterio-5-[(2S,6R)-11-[(1S,4S)-2,5-diazabicyclo[2.2.1]heptan-2-yl]-6-methyl-4,7,10-triazatricyclo[7.4.0.02,7]trideca-1(9),10,12-trien-4-yl]quinoline-8-carbonitrile], for which, at human TLR9, the IC50 was determined as 121 nM. Further, in data set [1], the “CL (h)” value came to 6.2 mL/min/kg. In the case of `[2H]c1ccc2c(N3C[C@@H](C)N4Cc5nc(N6C[C@H]7C[C@@H]6CN7)ccc5[C@H]4C3)ccc(C#N)c2n1` [Example 17, 2-Deuterio-5-[(2S,6R)-11-[(1R,4R)-2,5-diazabicyclo[2.2.1]heptan-2-yl]-6-methyl-4,7,10-triazatricyclo[7.4.0.02,7]trideca-1(9),10,12-trien-4-yl]quinoline-8-carbonitrile], at human TLR9, the IC50 stood at 53.4 nM. On the same count and under the same terms, the value for `[2H]c1ccc2c(N3C[C@@H](C)N4Cc5nc(O[C@H]6CCNC6)ccc5[C@H]4C3)ccc(C#N)c2n1` [Example 25, 2-Deuterio-5-[(2S,6R)-6-methyl-11-[(3S)-pyrrolidin-3-yl]oxy-4,7,10-triazatricyclo[7.4.0.02,7]trideca-1(9),10,12-trien-4-yl]quinoline-8-carbonitrile] was 274 nM; that for `C[C@@H]1CN(c2ccc(C#N)c3ncccc23)C[C@@H]2c3ccc(N4CCCNCC4)nc3CN12` [Example 20, 5-[(2S,6R)-11-(1,4-diazepan-1-yl)-6-methyl-4,7,10-triazatricyclo[7.4.0.02,7]trideca-1(9),10,12-trien-4-yl]quinoline-8-carbonitrile] was 206 nM; that for `[2H]c1ccc2c(N3C[C@@H](C)N4Cc5nc(N6CC[C@H](OC)[C@@H](N)C6)ccc5[C@H]4C3)ccc(C#N)c2n1` [Example 14, 5-[(2S,6R)-11-[(3S,4S)-3-amino-4-methoxy-1-piperidyl]-6-methyl-4,7,10-triazatricyclo[7.4.0.02,7]trideca-1(9),10,12-trien-4-yl]-2-deuterio-quinoline-8-carbonitrile] was 316 nM.

`[2H]c1ccc2c(N3C[C@@H](C)N4Cc5nc(N6CCC(C)(N)CC6)ccc5[C@H]4C3)ccc(C#N)c2n1` [Example 19, 5-[(2S,6R)-11-(4-amino-4-methyl-1-piperidyl)-6-methyl-4,7,10-triazatricyclo[7.4.0.02,7]trideca-1(9),10,12-trien-4-yl]-2-deuterio-quinoline-8-carbonitrile]: at human TLR9, the IC50 came out at 142 nM. The same measure, in the same setting: the value for `[2H]c1ccc2c(N3C[C@@H](C)N4Cc5nc(N6CC[C@H](N)[C@@H](OC)C6)ccc5[C@H]4C3)ccc(C#N)c2n1` [Example 12, 5-[(2S,6R)-11-[(3S,4S)-4-amino-3-methoxy-1-piperidyl]-6-methyl-4,7,10-triazatricyclo[7.4.0.02,7]trideca-1(9),10,12-trien-4-yl]-2-deuterio-quinoline-8-carbonitrile] was 305 nM; that for `[2H]c1ccc2c(N3C[C@@H](C)N4Cc5nc(N6CC[C@H]7CNC[C@H]76)ccc5[C@H]4C3)ccc(C#N)c2n1` [Example 10, 5-[(2S,6R)-11-[(3aS,6aS)-3,3a,4,5,6,6a-hexahydro-2H-pyrrolo[2,3-c]pyrrol-1-yl]-6-methyl-4,7,10-triazatricyclo[7.4.0.02,7]trideca-1(9),10,12-trien-4-yl]-2-deuterio-quinoline-8-carbonitrile] was 186 nM.
